Assay results taken from ChEMBL document CHEMBL1127889 (Bioorg Med Chem Lett, 1994).

Legend:
[1] = Selectivity ratio against ECE/NEP
Neprilysin = target: T1, Neprilysin (Rattus norvegicus, UniProt P07861); assay: Inhibitory activity against neutral endopeptidase (NEP)prepared from microsomal fractions of rat small intestine
T1 sequence (P07861 whole entry): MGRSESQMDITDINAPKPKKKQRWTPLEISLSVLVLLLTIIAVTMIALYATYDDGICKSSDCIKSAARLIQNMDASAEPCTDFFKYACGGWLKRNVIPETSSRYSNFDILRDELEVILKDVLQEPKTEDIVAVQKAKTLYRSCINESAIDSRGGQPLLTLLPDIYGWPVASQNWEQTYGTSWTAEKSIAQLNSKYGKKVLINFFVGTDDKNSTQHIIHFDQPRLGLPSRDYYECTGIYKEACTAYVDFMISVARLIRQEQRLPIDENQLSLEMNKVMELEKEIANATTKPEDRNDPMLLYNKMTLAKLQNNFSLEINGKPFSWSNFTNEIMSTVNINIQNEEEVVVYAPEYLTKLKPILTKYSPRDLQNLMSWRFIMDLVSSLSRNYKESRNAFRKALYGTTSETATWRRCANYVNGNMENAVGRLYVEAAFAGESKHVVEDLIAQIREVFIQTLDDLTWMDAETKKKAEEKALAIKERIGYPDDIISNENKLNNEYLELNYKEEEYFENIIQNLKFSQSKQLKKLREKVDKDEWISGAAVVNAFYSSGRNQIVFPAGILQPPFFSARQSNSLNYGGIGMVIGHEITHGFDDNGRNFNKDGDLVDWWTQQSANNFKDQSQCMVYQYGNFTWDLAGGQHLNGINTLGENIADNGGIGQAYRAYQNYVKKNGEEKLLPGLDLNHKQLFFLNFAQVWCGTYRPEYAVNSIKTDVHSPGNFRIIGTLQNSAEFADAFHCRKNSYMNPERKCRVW

[2] = target: T2, Endothelin-converting enzyme 1 (Bos taurus, UniProt P42891); assay: Inhibition of Endothelin-converting enzyme (ECE) from microsomal fractions of bovine cultured endothelial cells; assay type: cell-based, Endothelial cell
T2 sequence (P42891 whole entry): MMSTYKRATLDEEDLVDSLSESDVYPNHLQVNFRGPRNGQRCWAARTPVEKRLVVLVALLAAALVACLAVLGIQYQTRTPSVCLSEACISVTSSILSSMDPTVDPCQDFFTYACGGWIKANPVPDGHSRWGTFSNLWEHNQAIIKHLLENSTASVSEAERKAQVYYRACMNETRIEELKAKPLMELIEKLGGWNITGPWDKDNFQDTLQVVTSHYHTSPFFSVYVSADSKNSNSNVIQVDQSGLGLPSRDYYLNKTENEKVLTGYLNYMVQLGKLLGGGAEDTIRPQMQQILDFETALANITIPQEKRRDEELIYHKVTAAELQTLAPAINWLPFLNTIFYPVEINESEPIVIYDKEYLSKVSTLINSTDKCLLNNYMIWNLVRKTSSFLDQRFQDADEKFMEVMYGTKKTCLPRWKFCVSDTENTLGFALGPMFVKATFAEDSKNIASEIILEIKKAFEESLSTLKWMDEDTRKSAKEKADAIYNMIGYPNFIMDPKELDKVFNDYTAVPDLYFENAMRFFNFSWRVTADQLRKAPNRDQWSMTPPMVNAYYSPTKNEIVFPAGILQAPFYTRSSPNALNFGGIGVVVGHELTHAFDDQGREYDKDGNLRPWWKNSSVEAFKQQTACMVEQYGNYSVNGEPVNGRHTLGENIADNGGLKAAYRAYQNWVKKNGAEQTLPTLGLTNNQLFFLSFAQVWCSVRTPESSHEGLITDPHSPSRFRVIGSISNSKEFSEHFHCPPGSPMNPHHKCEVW

[3] = target: T3, Endothelin-converting enzyme 1 (Bos taurus) (UniProt P42891); assay: Inhibitory activity against Endothelin-converting enzyme (ECE) prepared from the microsomal fractions of bovine cultured endothelial cells at a concentration of 100 uM; assay type: cell-based; conditions: Endothelial cell
T3 sequence (whole entry): T2 sequence (P42891 whole entry)

[4] = target: T3, Endothelin-converting enzyme 1 (Bos taurus); assay: Inhibitory activity against Endothelin converting enzyme (ECE) prepared from the microsomal fractions of bovine cultured endothelial cells at a concentration of 100 uM; assay type: cell-based; conditions: Endothelial cell

SMILES	Ratio [1]	IC50 (Neprilysin) [nM]	IC50 [2] [nM]	inhibition [3] [%]	inhibition [4] [%]
CCCC[C@H](NP(=O)(O)O)C(=O)N[C@@H](Cc1c[nH]c2ccccc12)C(=O)O	–	–	1500	–	–
CC(C)C[C@H](NP(=O)(O)OC1O[C@@H](C)[C@H](O)[C@@H](O)[C@H]1O)C(=O)N[C@@H](Cc1c[nH]c2ccccc12)C(=O)O (single isomer, unassigned) [PHOSPHORAMIDON]	–	4.2	–	–	–
CC[C@@H](C)[C@H](NP(=O)(O)O)C(=O)N[C@@H](Cc1c[nH]c2ccccc12)C(=O)O	–	–	2800	–	–
CC(C)C[C@H](NCP(=O)(O)O)C(=O)N[C@@H](Cc1c[nH]c2ccccc12)C(=O)O	7.1	24	3400	–	–
CC(C)[C@H](NP(=O)(O)O)C(=O)N[C@@H](CC(N)=O)C(=O)O	–	–	–	14	–
CCCC(N[C@@H](CC(C)C)C(=O)N[C@@H](Cc1c[nH]c2ccccc12)C(=O)O)P(=O)(O)O (stereo partly specified)	37	550	15000	–	–

Other lines, results leading:

Ratio [1]	IC50 (Neprilysin) [nM]	IC50 [2] [nM]	inhibition [3] [%]	inhibition [4] [%]	SMILES
150	1100	7100	38	–	CC(C)C[C@H](NC(CCCc1ccccc1)P(=O)(O)O)C(=O)N[C@@H](Cc1c[nH]c2ccccc12)C(=O)O (stereo partly specified)
290	560	1900	–	–	CC(C)C[C@H](NC(CCc1c[nH]c2ccccc12)P(=O)(O)O)C(=O)N[C@@H](Cc1c[nH]c2ccccc12)C(=O)O (stereo partly specified)
120	130	1100	33	–	CC(C)C[C@H](NC(CCc1ccccc1)P(=O)(O)O)C(=O)N[C@@H](Cc1c[nH]c2ccccc12)C(=O)O (stereo partly specified)
43	130	3000	42	–	CC(C)C[C@H](NC(CCc1ccc(O)cc1)P(=O)(O)O)C(=O)N[C@@H](Cc1c[nH]c2ccccc12)C(=O)O (stereo partly specified)
–	–	960	–	–	CC(C)C[C@H](NP(=O)(O)O)C(=O)N[C@@H](Cc1c[nH]c2ccccc12)C(=O)O
540	140	260	–	31	CC(C)C[C@H](NC(CCc1cccc2ccccc12)P(=O)(O)O)C(=O)N[C@@H](Cc1c[nH]c2ccccc12)C(=O)O (stereo partly specified)
–	–	7400	–	–	CC(C)C[C@H](NP(=O)(O)O)C(=O)N[C@@H](Cc1cccc2ccccc12)C(=O)O
